Assays:
[1] = biological target: T1, thymidylate synthase (TS) (Homo sapiens, UniProt P04818); test: TS catalytic activity assay in treated PC3 cells; assay type: cell-based; conditions: 5-FU 10^−6 M
T1 construct: endogenous in cells; host or cells: PC3 (human prostate cancer cell line, ATCC)
Excerpt: (§1) Other anti-angiogenic/anti-tumor agents that can be used in conjunction with the compounds, compositions, methods and combination therapy of the present invention include: SD-7784 (Pfizer, USA); cilengitide. […]

[2] = once daily, three times per week; higher doses lethal; cited from earlier work
PC3 cells = test: Clonogenic survival assay; assay type: cell-based, human; conditions: 72 h treatment; for decrease of colony formation relative to control: 10 μM
Excerpt: as §1

T1 sequence (P04818 2-313 limits assumed): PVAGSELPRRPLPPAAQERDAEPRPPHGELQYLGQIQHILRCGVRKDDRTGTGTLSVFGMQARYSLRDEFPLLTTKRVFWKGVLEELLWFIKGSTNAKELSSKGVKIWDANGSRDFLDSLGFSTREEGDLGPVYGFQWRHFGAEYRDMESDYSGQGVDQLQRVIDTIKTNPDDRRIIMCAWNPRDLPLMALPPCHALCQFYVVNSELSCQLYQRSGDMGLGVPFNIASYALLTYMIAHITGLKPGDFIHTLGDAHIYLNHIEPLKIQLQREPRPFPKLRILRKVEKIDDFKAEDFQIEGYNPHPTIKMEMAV

O=c1[nH]cc(F)c(=O)[nH]1 [5-FU, 5-fluorouracil]
TS activity relative to control ([1]; 8 and 16 h): increased | TS activity ([1]; 48 h timepoint): ~50 % control | maximum tolerated dose [2]: 45 mg/kg/dose | PC3 cell colony formation (PC3 cells; 1 μM): no effect | decrease of colony formation relative to control (PC3 cells): < 50% | decrease of colony formation relative to control (PC3 cells; listed as 5FU): less than 50%

From patent US20170151240A1, “F10 Inhibits Growth of PC3 Xenografts and Enhances the Effects of Radiation Therapy” (WAKE FOREST UNIVERSITY, priority 2014, published 2017)
